Structures are written as SMILES. The source made the active and inactive calls. The rule behind the calls is not given here. *1 amine or outer side, *2 acyl side, *3 side chain or, on linkers, in order; H or OH if unused. Where a SMILES comes first, the peptide text is derived from it. Bridges are numbered along the chain shown (N, C = ends). Roman numbers before positions name the chains, in order. [ ]: non-standard residue; d: D form. Actinocin(9to1) = Cc1c2oc3c(C)ccc(C(=O)[*:1])c3nc-2c(C(=O)[*:2])c(N)c1=O; NMeV = CN[C@H](C(=O)O)C(C)C; Sar = CNCC(=O)O A value given as a limit tells only on which side of the number the result lay.

The subject of this test is VEGF-stimulated ADSC/ECFC co-culture, nuclear area imaging. In words: nuclear area loss in endothelial-stromal co-culture, dose response, cell-based, VEGF stimulation, IC50 (AID 1117324).
As to `Cc1c2oc3c(C)ccc(C(=O)N[C@@H]4C(=O)N[C@H](C(C)C)C(=O)N5CCC[C@H]5C(=O)N(C)CC(=O)N(C)[C@@H](C(C)C)C(=O)O[C@@H]4C)c3nc-2c(C(=O)N[C@@H]2C(=O)N[C@H](C(C)C)C(=O)N3CCC[C@H]3C(=O)N(C)CC(=O)N(C)[C@@H](C(C)C)C(=O)O[C@@H]2C)c(N)c1=O` (I: T[dV]P[Sar][NMeV] / II: T[dV]P[Sar][NMeV]; ester I:1-I:C, II:1-II:C; linker I:N-II:N via Actinocin(9to1)), the IC50 was 0.0403 µM. With `CCN(CC)CCCC(C)Nc1c2ccc(Cl)cc2nc2ccc(OC)cc12` (stereo not drawn), the IC50 was > 10 µM (inactive).

`COc1cc([C@@H]2c3cc4c(cc3[C@H](O)[C@H]3COC(=O)[C@H]23)OCO4)cc(OC)c1OC`: the IC50 is > 10 µM (inactive).

As to `O=C(O)C1CCC1`, the IC50 is > 10 µM (inactive). The figure for `Oc1cc(Cl)ccc1Oc1ccc(Cl)cc1Cl` is 8.1 µM (inactive). Take `CC(=O)N(O)CCCCCNC(=O)CCC(=O)N(O)CCCCCNC(=O)CCC(=O)N(O)CCCCCN`: the IC50 was > 10 µM (inactive). The figure for `Cc1ccc2c(Br)cc(Br)c(O)c2n1` is > 10 µM (inactive); for `CCCCC(CC)COC(=O)CC(C(=O)OCC(CC)CCCC)S(=O)(=O)O` (stereo not drawn) it is > 10 µM (inactive); for `CCCCCCC[N+](CC)(CC)CCCCc1ccc(Cl)cc1` it is > 10 µM (inactive).

As to `O=S(c1cc(Cl)cc(Cl)c1O)c1cc(Cl)cc(Cl)c1O`, the IC50 is > 10 µM (inactive). `Cc1ccc(C(=O)Oc2ccc(C(O)CNC(C)(C)C)cc2OC(=O)c2ccc(C)cc2)cc1` (stereo not drawn): the IC50 is > 10 µM (inactive). As to `CC[C@]12CCCN3CCc4c(n(c5ccccc45)C(=O)C1)[C@@H]32`, the IC50 was > 10 µM (inactive).

For the compound `CCCCC[C@@H](O)CC[C@H]1[C@@H]2Cc3cccc(OCC(=O)O)c3C[C@@H]2C[C@@H]1O`, the IC50 is > 10 µM (inactive). Consider `CC(C)OC(=O)OCOP(=O)(CO[C@H](C)Cn1cnc2c(N)ncnc21)OCOC(=O)OC(C)C`, for which the IC50 was > 10 µM (inactive). Regarding `c1ccc2c(c1)Sc1ccccc1N2CC1CN2CCC1CC2` (stereo not drawn), the IC50 was > 10 µM (inactive). To `CN1CCN(CCCN2c3ccccc3Sc3ccc(S(=O)(=O)N(C)C)cc32)CC1` belongs > 10 µM (inactive). With `CCCCC(=O)O[C@H]1CC[C@H]2[C@@H]3CCc4cc(O)ccc4[C@@H]3CC[C@]12C`, the IC50 was 8.3 µM (inactive).

In the case of `O=C(CCl)c1ccc(Cl)cc1Cl`, the IC50 was 6.17 µM (inactive). With `CNC(=O)Oc1cccc2ccccc12`, the IC50 is > 10 µM (inactive). The figure for `O=C(O)CCCc1ccc(N(CCCl)CCCl)cc1` is > 10 µM (inactive); for `CN(Cc1cnc2nc(N)nc(N)c2n1)c1ccc(C(=O)N[C@@H](CCC(=O)O)C(=O)O)cc1` it is > 10 µM (inactive); for `O[C@@H](c1cc(C(F)(F)F)nc2c(C(F)(F)F)cccc12)[C@H]1CCCCN1` it is 8.61 µM (inactive). As to `CCOC(=O)NC(C)(C)Cc1ccc(Cl)cc1`, the IC50 was > 10 µM (inactive). To `Nc1nc(=S)c2[nH]cnc2[nH]1` belongs > 10 µM (inactive); to `NC(=O)C1(N2CCCCC2)CCN(CCCN2c3ccccc3CCc3ccc(Cl)cc32)CC1`, > 10 µM (inactive); to `CN(C)CCCN1c2ccccc2Sc2ccc(Cl)cc21`, > 10 µM (inactive).

As for `CC[C@H](C)C(=O)O[C@H]1C[C@@H](C)C=C2C=C[C@H](C)[C@H](CC[C@@H]3C[C@@H](O)CC(=O)O3)[C@H]21`, the IC50 is > 10 µM (inactive). To `Nc1nc(F)nc2c1ncn2[C@@H]1O[C@H](CO)[C@@H](O)[C@@H]1O` belongs > 10 µM (inactive); to `O=C1CC(c2ccc(Cl)cc2)CC(=O)N1`, > 10 µM (inactive). Take `COC1=C(OC)C(=O)C(CCCCCCCCCCO)=C(C)C1=O`: the IC50 was > 10 µM (inactive). To `CCCCC(CC)CN=C(N)NC(N)=NCCCCCCN=C(N)NC(N)=NCC(CC)CCCC` (stereo not drawn) belongs > 10 µM (inactive).

As for `CCCCCCCCCCOCC(O)CN` (stereo not drawn), the IC50 is > 10 µM (inactive). Regarding `Cc1cc2nc3ccc(=[N+](C)C)cc-3sc2cc1N`, the IC50 was 8.15 µM (inactive). Regarding `CC(C(O)c1ccccc1)N(C)C/C=C/c1ccccc1` (stereo not drawn), the IC50 was > 10 µM (inactive). The figure for `C[C@@H]1C[C@@H]([C@H](O)CC2CC(=O)NC(=O)C2)C(=O)[C@@H](C)C1` is > 10 µM (inactive); for `Cc1c(O)cccc1C(=O)N[C@@H](CSc1ccccc1)[C@H](O)CN1C[C@H]2CCCC[C@H]2C[C@H]1C(=O)NC(C)(C)C` it is > 10 µM (inactive); for `COc1cccc2c1C(=O)c1c(O)c3c(c(O)c1C2=O)C[C@@](O)(C(=O)CO)CC3OC1CC(N2CCOC(OC)C2)C(O)C(C)O1` (stereo partly drawn) it is 0.0442 µM. Take `Oc1c(I)cc(Cl)c2cccnc12`: the IC50 was > 10 µM (inactive). `O=[N+]([O-])c1ccc(Oc2ccc(N=C=S)cc2)cc1`: the IC50 is > 10 µM (inactive).

Regarding `O=C(CCBr)N1CCN(C(=O)CCBr)CC1`, the IC50 was > 10 µM (inactive).

Consider `Cc1cc(O)c2ccccc2c1O`, for which the IC50 was 9.85 µM (inactive). Regarding `COc1cc2c(c(OC)c1OC)-c1ccc(OC)c(=O)cc1[C@@H](NC(C)=O)CC2`, the IC50 is > 10 µM (inactive). The figure for `CCOC(=O)c1ccccc1C(=O)OCC` is > 10 µM (inactive). `O=c1[nH]c(=O)n([C@H]2C[C@H](O)[C@@H](CO)O2)cc1F`: the IC50 is > 10 µM (inactive). Consider `COC(=O)Nc1nc2ccc(Sc3ccccc3)cc2[nH]1`, for which the IC50 is > 10 µM (inactive). Turning to `Oc1c(Cl)cc(Cl)c2cccnc12`, the IC50 was > 10 µM (inactive). To `CN[C@@H]1C[C@@H](c2ccc(Cl)c(Cl)c2)c2ccccc21` belongs > 10 µM (inactive); to `C1CN(P2(N3CC3)=NP(N3CC3)(N3CC3)=NP(N3CC3)(N3CC3)=N2)CCO1` (stereo not drawn), > 10 µM (inactive); to `COc1ccc2cc1Oc1ccc(cc1)C[C@H]1c3c(cc4c(c3Oc3cc5c(cc3OC)CCN(C)[C@@H]5C2)OCO4)CCN1C`, > 10 µM (inactive). The figure for `O=c1[nH]c(=O)n([C@H]2C[C@H](O)[C@@H](CO)O2)cc1I` is > 10 µM (inactive); for `Nc1nc(=O)n([C@@H]2O[C@H](CO)[C@@H](O)[C@@H]2F)cc1I` it is > 10 µM (inactive); for `CCCCCCCCCCCCCCCCCCNC(=O)OC1CCN(C(=O)OC[C@H](COC(=O)N(Cc2cccc[n+]2CC)C(=O)c2ccccc2OC)OC)CC1` it is > 10 µM (inactive). The figure for `C=CCCCCCCCCC(=O)OC` is > 10 µM (inactive). `CCN(CC)CCNc1ccc(CO)c2sc3ccccc3c(=O)c12`: the IC50 was > 10 µM (inactive). The figure for `O=C1NCCN1CCN1CCC(c2cn(-c3ccc(F)cc3)c3ccc(Cl)cc23)CC1` is > 10 µM (inactive); for `Oc1c(Br)cc(Br)c2cccnc12` it is > 10 µM (inactive). In the case of `CC(CC=O)CCCC(C)(C)O` (stereo not drawn), the IC50 was > 10 µM (inactive).

As to `COCc1c(C(C)C)nc(C(C)C)c(/C=C/[C@@H](O)C[C@@H](O)CC(=O)O)c1-c1ccc(F)cc1`, the IC50 was 0.259 µM. `Nc1c2ccccc2nc2ccccc12`: the IC50 is > 10 µM (inactive).

For the compound `O[C@@H](CNC[C@H](O)[C@H]1CCc2cc(F)ccc2O1)[C@@H]1CCc2cc(F)ccc2O1`, the IC50 was > 10 µM (inactive).

As for `CCCCCCCC/C=C\CCCCCCCCN`, the IC50 was 9.13 µM (inactive). For the compound `Cc1c(O)cc2c(c1C)O[C@](C)(CCC[C@H](C)CCC[C@H](C)CCCC(C)C)CC2`, the IC50 is > 10 µM (inactive). To `NC(=NCCCCCCN=C(N)/N=C(\N)Nc1ccc(Cl)cc1)/N=C(\N)Nc1ccc(Cl)cc1` belongs > 10 µM (inactive); to `CN1CCCC(CC2c3ccccc3Sc3ccccc32)C1` (stereo not drawn), > 10 µM (inactive). Regarding `COC(=O)CCCCC(CCSS/C(CCO)=C(\C)N(C=O)Cc1cnc(C)nc1N)SC(C)=O` (stereo not drawn), the IC50 was > 10 µM (inactive). The figure for `CC[C@@H]([C@H](C)O)n1ncn(-c2ccc(N3CCN(c4ccc(OC[C@@H]5CO[C@@](Cn6cncn6)(c6ccc(F)cc6F)C5)cc4)CC3)cc2)c1=O` is > 10 µM (inactive); for `COc1cc(-c2ccc(=O)[nH]n2)ccc1OC(F)F` it is > 10 µM (inactive); for `O=C(OCCO)c1ccccc1O` it is > 10 µM (inactive). As for `Cc1cccc(Nc2cc(Cl)nc(SCC(=O)O)n2)c1C`, the IC50 was > 10 µM (inactive). Regarding `COc1cc(S(N)(=O)=O)cc(C(=O)O)c1OC`, the IC50 was > 10 µM (inactive). For the compound `CC(COc1ccccc1)NN` (stereo not drawn), the IC50 is > 10 µM (inactive). The figure for `CO[C@H]1O[C@@H]2O[C@@]3(C)CC[C@H]4[C@H](C)CC[C@@H]([C@@H]1C)[C@@]24OO3` is > 10 µM (inactive); for `CSc1ccc2c(c1)N(CCC1CCCCN1C)c1ccccc1S2` (stereo not drawn) it is 9.24 µM (inactive); for `Cc1nc2ccccc2n1Cc1ccc(Cl)cc1` it is > 10 µM (inactive).

Consider `CCN(CC)CCOc1ccc(/C(=C(\Cl)c2ccccc2)c2ccccc2)cc1`, for which the IC50 is > 10 µM (inactive). For the compound `O=C1CC[C@H](C(=O)N2CCCCC2)N1`, the IC50 was > 10 µM (inactive).

Consider `CC(C)CCCC(C)NCCC(C)C` (stereo not drawn), for which the IC50 was > 10 µM (inactive). In the case of `CC[C@]1(O)CC[C@H]2[C@@H]3CCC4=CCCC[C@@H]4[C@H]3CC[C@@]21C`, the IC50 is > 10 µM (inactive).

For the compound `CN1CCC[C@@H]1CCO[C@](C)(c1ccccc1)c1ccc(Cl)cc1`, the IC50 is > 10 µM (inactive). To `CCCCCCCCCCCCCCCCCCCCCC(=O)Nc1ccn([C@@H]2O[C@H](CO)[C@@H](O)[C@H]2O)c(=O)n1` belongs > 10 µM (inactive); to `ClC1=C(Cl)C2(Cl)C(CBr)CC1(Cl)C2(Cl)Cl` (stereo not drawn), 9.97 µM (inactive); to `Cc1ccc(Nc2c(F)cccc2Cl)c(CC(=O)O)c1`, > 10 µM (inactive). To `Clc1ccccc1C(c1ccccc1)(c1ccccc1)n1ccnc1` belongs > 10 µM (inactive).

Broadly, the IC50 is the point on the concentration scale where inhibition reaches its midpoint.

For the origin of these results see PubChem BioAssay AID1117324 (Cheminformatics & Chemogenomics Research Group (CCRG), …, 2015).
